IC50 data for six compounds are collected here from patent US20260258048A1, “LACTAM-CONTAINING IMIDAZOPYRIDAZINE IL-17 INHIBITOR COMPOUNDS” (Janssen Pharmaceutica NV, priority 2023, published 2026).

Test [1] has as its target IL-17A(FLAG-tagged): IL-17RA(His-tagged) (Homo sapiens, UniProt Q16552, K93Q). Put plainly: IL-17A(FLAG-tagged): IL-17RA(His-tagged) binding disruption Eu-HTRF assay. The gist of the method: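 Compound (22-point, 2-fold series) was pre-incubated 1 h at rt with FLAG-IL-17A, added as a 2× solution (1 μM). A 2× mix of C-terminal 10×His IL-17RA, Eu-anti-FLAG donor and D2-anti-His acceptor in PBS/0.01% Triton X-100/200 mM KF was then added for 2 h at rt. The 665/615 nm ratio was fitted to one-site competition for IC50.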
(TR-FRET usually uses a lanthanide donor and a delayed reading to cut background.)

Test [2] deals with IL-17A-induced G-CSF production in human normal keratinocyte (NHK). Put plainly: NHK assay: IL-17A-induced G-CSF production in normal human keratinocytes. The test is classed as cell-based. The note with it: 24 h, IL-17A 5 ng/mL. The gist of the method:
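Adult keratinocytes at 3000-4000 cells/well; recombinant human IL-17A pre-incubated 1 h at rt with titrated compound, then added to cells (final 5 ng/mL IL-17A, 0.2% DMSO, 5% FBS) for 24 h at 37 °C. Supernatant G-CSF quantified by HTRF against a standard curve to give IC50; viability checked by CellTiter-Glo versus DMSO.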

Setting [3] is: class of the average IC50 where tested more than once.
Setting [4] is: Homo sapiens, Keratinocyte, class of the average IC50 where tested more than once.

Structures are written as SMILES.

UniProt Q16552, sequence (Q16552 with tags, fused parts or gaps K93Q): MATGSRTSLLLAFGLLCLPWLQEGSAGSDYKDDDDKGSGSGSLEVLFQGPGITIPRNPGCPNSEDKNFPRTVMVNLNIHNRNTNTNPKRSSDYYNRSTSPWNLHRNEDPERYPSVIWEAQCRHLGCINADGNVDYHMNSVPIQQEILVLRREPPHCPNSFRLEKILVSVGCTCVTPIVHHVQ

On to `CC(C)[C@@H]1C[C@H](Cc2cnn3cc([C@@H](NC(=O)c4nonc4C4CC4)C4CCC(F)(F)CC4)nc3c2)C(=O)N1` (relative stereo) [Example 96, 4-Cyclopropyl-N—[(S)-(4,4-difluorocyclohexyl)-[7-[[(3S*,5S*)-5-isopropyl-2-oxo-pyrrolidin-3-yl]methyl]imidazo[1,2-b]pyridazin-2-yl]methyl]-1,2,5-oxadiazole-3-carboxamide], for which the IC50 in test [1] (setting [3]) and in test [2] (setting [4]) was above 4 µM in each case.

In the case of `O=C(N[C@H](c1cn2ncc([C@@H](O)[C@H]3C[C@@H](C(F)(F)F)NC3=O)cc2n1)C1CCC(F)(F)CC1)c1nonc1C1CC1` [Example 74], the IC50 in test [1] (setting [3]) and in test [2] (setting [4]) was below 0.4 µM in each case.

In the case of `Cc1nonc1C(=O)N[C@H](c1cn2ncc(CC3C[C@@H](C(F)(F)F)NC3=O)cc2n1)C1CCC(F)(F)CC1` (single isomer, unassigned) [Example 10, N—[(S)-(4,4-Difluorocyclohexyl)-[7-[[(3R*,5S)-2-oxo-5-(trifluoromethyl)pyrrolidin-3-yl]methyl]imidazo[1,2-b]pyridazin-2-yl]methyl]-4-methyl-1,2,5-oxadiazole-3-carboxamide], the IC50 in test [1] (setting [3]) and in test [2] (setting [3]) was above 4 µM in each case.

As for `O=C(N[C@H](c1cn2ncc(C[C@@H]3C(=O)NCC[C@@H]3C(F)(F)F)cc2n1)C1CCC(F)(F)CC1)c1nonc1C1CC1` (relative stereo) [Example 45, 4-Cyclopropyl-N—((S)-(4,4-difluorocyclohexyl)(7-(((3S*,4S*)-2-oxo-4-(trifluoromethyl)piperidin-3-yl)methyl)imidazo[1,2-b]pyridazin-2-yl)methyl)-1,2,5-oxadiazole-3-carboxamide], the IC50 (as a rule, the concentration that inhibits the measured activity by half) is 0.4 to 4 µM in test [1] (setting [3]) and above 4 µM in test [2] (setting [4]).

With `O=C(N[C@H](c1cn2ncc(C[C@@H]3C[C@@H](C(F)(F)F)NC3=O)cc2n1)C1CCC(F)(F)CC1)c1nonc1C1CC1` [Example 60, 4-Cyclopropyl-N—[(S)-(4,4-difluorocyclohexyl)-[7-[[(3R,5S)-2-oxo-5-(trifluoromethyl)pyrrolidin-3-yl]methyl]imidazo[1,2-b]pyridazin-2-yl]methyl]-1,2,5-oxadiazole-3-carboxamide], the IC50 is 0.4 to 4 µM in test [1] (setting [3]); 1.14 µM in test [1] (value in brackets, Table 4); above 4 µM in test [2] (setting [4]); above 4 µM in test [2] (Homo sapiens, Keratinocyte, value in brackets, Table 4).

Take `CC[C@@H]1C[C@H](Cc2cnn3cc([C@@H](NC(=O)c4nonc4C4CC4)C4CCC(F)(F)CC4)nc3c2)C(=O)N1` (relative stereo) [Example 89, 4-Cyclopropyl-N—[(S)-(4,4-difluorocyclohexyl)-[7-[[(3S*,5R*)-5-ethyl-2-oxo-pyrrolidin-3-yl]methyl]imidazo[1,2-b]pyridazin-2-yl]methyl]-1,2,5-oxadiazole-3-carboxamide]: the IC50 in test [1] (setting [3]) is below 0.4 µM; in test [2] (setting [4]), above 4 µM.
